The text below walks through data of patent US6699863B1, “Kinase inhibitors for the treatment of disease” (Allergan, Inc., priority 2002, dated 2004).

Structures are written as SMILES.

Data set [1] has as its target T1, human VEGF receptor (VEGFR-2) (Homo sapiens, UniProt P35968).
T1 construct: The cytoplasmic domain of the human VEGF receptor (VEGFR-2) was expressed; His (histidine tag); made in house; host or cells: insect cells (engineered baculovirus)
Briefly: VEGFR2 Kinase Assay. The data set is classed as biochemical. Particulars: 3.6 μM ATP, poly-Glu-Tyr (4:1). The method, then:
The cytoplasmic domain of the human VEGF receptor (VEGFR-2) was expressed as a Hisfidine-tagged fusion protein following infection of insect cells using an engineered baculovirus. His-VEGFR-2 was purified to homogeneity, as determined by SDS-PAGE, using nickel resin chromatography. Kinase assays were performed in 96 well microtiter plates that were coated overnight with 30 μg of poly-Glu-Tyr (4:1) in 10 mM Phosphate Buffered Saline (PBS), pH 7.2-7.4. The plates were incubated with 1% BSA and then washed four times with PBS prior to starting the reaction. Reactions were carried out in 120 μL reaction volumes containing 3.6 μM ATP in kinase buffer (50 mM Hepes buffer pH 7.4, 20 mM MgCl2, 0.1 mM MnCl2 and 0.2 mM Na3VO4). Test compounds were reconstituted in 100% DMSO and added to the reaction to give a final DMSO concentration of 5%. Reactions were initiated by the addition 0.5 ng of purified protein. Following a ten minute incubation at 25° C., the reactions were washed four times with PBS containing 0.05% Tween-20. 100 μl of a monoclonal anti-phosphotyrosine antibody-peroxidase conjugate was diluted 1:10000 in PBS-Tween-20 and added to the wells for 30 minutes. Following four washes with PBS-Tween-20, 100 μl of O-phenylenediamine Dihydrochloride in Phosphate-citrate buffer, containing urea hydrogen peroxide, was added to the wells for 7 minutes as a colorimetric substrate for the peroxidase. The reaction was terminated by the addition of 100 μl of 2.5N H2SO4 to each well and read using a microplate ELISA reader set at 492 nm. IC50 values for compound inhibition were calculated directly from graphs of optical density (arbitrary units) versus compound concentration following subtraction of blank values.

Data set [2] deals with VEGF induced increases in intracellular calcium levels in HUVEC (human umbilical vein endothelial cells). Briefly: VEGF Stimulated Ca++ Signal In vitro (FLIPR). The data set is classed as cell-based. The conditions noted are these: VEGF stimulation 5 ng/mL, 30 min pre-incubation. As to the method: Automated FLIPR (Fluorometric Imaging Plate Reader) technology was used to screen for inhibitors of VEGF induced increases in intracellular calcium levels in fluorescent dye loaded endothelial cells. HUVEC (human umbilical vein endothelial cells) (Clonetics) were seeded in 96-well fibronectin coated black-walled plates overnight at 37° C./5%CO2. Cells were loaded with calcium indicator Fluo-4 for 45 minutes at 37° C. Cells were washed 4 times (Original Cell Wash, Labsystems) to remove extracellular dye. Test compounds were reconstituted in 100% DMSO and added to the cells to give a final DMSO concentration of 0.1%. For screening, cells were pre-incubated with test agents for 30 minutes, at a single concentration (10 μM) or at concentrations ranging from 0.01 to 10.0 μM followed by VEGF stimulation (5 ng/mL). Changes in fluorescence at 516 nm were measured simultaneously in all 96 wells using a cooled CCD camera. Data were generated by determining max-min fluorescence levels for unstimulated, stimulated, and drug treated samples. IC50 values for test compounds were calculated from % inhibition of VEGF stimulated responses in the absence of inhibitor.

Data set [3] deals with VEGF-induced EBD extravasation. Briefly: VEGF-induced Dermal Extravasation in Guinea Pig (Miles Assay). Particulars: vehicle corn oil; for % Inhibition @ Dose (mg/Kg): 75 mg/Kg single oral dose. The data set is classed as in vivo. As to the method: Male Hartley guinea pigs (300-600 g) were anesthetized with isofluorane, sheared, and given a single dose of drug or the respective vehicle. The guinea pigs were dosed orally unless indicated otherwise in Table 3. Ten minutes prior to the end of drug treatment, guinea pigs were anesthetized with isofluorane, and 0.5% Evans blue dye (EBD) in PBS (13-15 mg/kg dose of EBD) was injected intravenously. After 5 minutes, triplicate intradermal injections of 100 ng rhVEGF165 in 100 μl PBS and of 100 μl PBS alone were administered on the flank. After 20 minutes, each animal was euthanized with Pentosol, and the skin containing the intradermal injection sites was removed for image analysis.
Using an analog video camera coupled to a PC, an image of each trans-illuminated skin sample was captured, and the integrated optical density of each injection site was measured using ImagePro 4. For each skin sample, the difference between the mean optical density of the VEGF sites and mean optical density of the PBS sites is the measure of VEGF-induced EBD extravasation in that animal. These measured values were averaged per study group to determine the mean VEGF-induced EBD extravasation for each experimental condition, and the group means were then compared to assess inhibition of VEGF-induced EBD extravasation in the drug-treated groups relative to the vehicle-treated controls.
(§1) To determine the dose required for 50% inhibition (ID50), the percent inhibition data was plotted as a function of oral dose, using the ‘best-fit’ analysis within MicroSoft Excel software. The ID50 value was verified visually by using the plotted data (horizontal line from 50% y value, at intersection with best-fit line drop vertical line to x axis (dose).

The next data set can be described thus: physchem. The data set is classed as physicochemical. Particulars: buffer. The method, then:
The chemical stability of Example 12 of the invention has been studied using buffers at pH 1, pH 3 and pH 7. Example 12 prepared in acetonitrile at 200 μg/mL and diluted to 20 μg/mL in buffers at pH 1, pH 3 and pH 7.

Data set [4] has as its system laser-induced choroidal neovascularization. Nature of the data set: Laser-induced Choroidal Neovascularization (CNV) in Rat (CNV Assay). The data set is classed as in vivo. Particulars: vehicle corn oil. As to the method: CNV was induced and quantified in this model as previously described (Edelman and Castro. Exp. Eye Res. 2000; 71:523-533). On day 0, male Brown Norway rats (200-300 g) were anesthetized with 100 mg/kg Ketamine and 10 mg/kg Xylazine, and pupils were dilated with 1% Tropicamide. Using the blue-green setting of a Coherent Novus Argon Laser, 3 laser bums (90 mW for 0.1 s; 100 μm diameter) were given to each eye between the retinal vessels around the optic nerve head. Rats were dosed with test compounds in their indicated vehicles orally once daily.
On day 10, rats were sacrificed with 100% CO2, and blood vessels were labeled by vascular perfusion with 10 mg/ml FITC-dextran (MW 2×10^6). Using an epifluorescence microscope (20×) coupled to a spot digital camera and a PC, images were obtained from the flat mounts of the RPE-choroid-sclera from each eye, and the area occupied by hyperfluorescent neovessels within each laser lesion was measured using ImagePro 4 software.
as §1

T1 sequence (P35968 786-1356 limits assumed): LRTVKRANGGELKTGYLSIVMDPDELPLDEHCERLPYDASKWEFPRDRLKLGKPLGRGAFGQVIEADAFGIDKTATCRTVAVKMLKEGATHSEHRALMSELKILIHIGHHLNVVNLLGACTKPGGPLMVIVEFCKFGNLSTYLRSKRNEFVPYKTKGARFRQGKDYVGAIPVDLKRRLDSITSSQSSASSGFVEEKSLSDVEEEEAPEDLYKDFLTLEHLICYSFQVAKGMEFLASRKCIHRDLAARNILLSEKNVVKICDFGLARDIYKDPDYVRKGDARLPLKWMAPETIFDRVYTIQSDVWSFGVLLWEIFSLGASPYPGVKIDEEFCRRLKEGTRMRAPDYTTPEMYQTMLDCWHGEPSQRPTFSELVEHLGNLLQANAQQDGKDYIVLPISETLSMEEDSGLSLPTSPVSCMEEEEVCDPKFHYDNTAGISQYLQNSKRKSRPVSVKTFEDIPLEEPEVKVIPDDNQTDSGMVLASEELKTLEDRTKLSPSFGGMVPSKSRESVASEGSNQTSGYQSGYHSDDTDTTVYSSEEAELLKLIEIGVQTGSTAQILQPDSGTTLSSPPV

For `CN(C)c1ccc2c(c1)COC2=C1C(=O)Nc2ccc(Cl)cc21` [Example 20, 5-Chloro-3-(5-dimethylamino-3H-isobenzofuran-1-ylidene)-1,3-dihydro-indol-2-one], the figures for the IC50 in data set [1] and in data set [2] were 22 nM and 33 nM, respectively.

`CN(C)c1ccc2c(c1)COC2=C1C(=O)Nc2ccccc21` [Example 18, 3-(5-Dimethylamino-3H-isobenzofuran-1-ylidene)-1,3-dihydro-indol-2-one]: the IC50 in data set [1] is 31 nM; in data set [2], 22 nM.

In the case of `CN(C)c1ccc2c(c1)COC2=C1C(=O)N(CN2CCCCC2)c2ccccc21` [Example 19, 3-(5-Dimethylamino-3H-isobenzofuran-1-ylidene)-1-piperidin-1-ylmethyl-1,3-dihydro-indol-2-one], the values for the IC50 in data set [1] and in data set [2] were 133 nM and 120 nM, respectively.

As to `O=C1C(=CNc2ccc(N3CCOCC3)cc2)c2ccccc2N1CN1CCOCC1` [Example 13, 1-Morpholin-4-ylmethyl-3-[(4-morpholin-4-yl-phenylamino)-methylene]-1,3-dihydro-indol-2-one], the “% Inhibition @ Dose (mg/Kg)” value in data set [3] is 35% @ 75 mg/Kg. For the same compound, the half-maximal inhibitory concentration (IC50) is 3860 nM in data set [1] and 722 nM in data set [2].

On to `O=C1Nc2ccccc2C1=CNc1ccc(N2CCOCC2)cc1` [Example 11, 3-[(4-morpholinophenylamino)-methylene]-1,3-dihydro-indol-2-one], for which the “% Inhibition @ Dose (mg/Kg)” value in data set [3] stood at 40% @ 75 mg/Kg. Moreover, the results for the IC50 in data set [1] and in data set [2] were 260 nM and 294 nM, respectively.

Consider `O=C1C(=CNc2ccc(N3CCOCC3)cc2)c2ccccc2N1CN1CCCCC1` [Example 12, 3-[(4-Morpholin-4-yl-phenylamino)-methylene]-1-piperidin-1-ylmethyl-1,3-dihydro-indol-2-one], for which the half-life at 20 μg/mL was roughly 38 h in “physchem” (pH 1), roughly 20 h in “physchem” (pH 3) and less than 0.5 h in the data set “physchem” (pH 7.4). The “% Inhibition @ Dose (mg/Kg)” value is reported as 88% @ 75 mg/Kg in data set [3] and 94% @ 80 mg/Kg (sid) in data set [4] (80 mg/Kg (sid) oral once daily, day 10). The ID50 in data set [3] (oral) and in data set [4] (oral once daily) was 36 mg/kg each time. The half-inhibitory concentration (IC50) turned out to be 478 nM in data set [1] and 432 nM in data set [2].

Consider `O=C1Nc2ccccc2C1=C1OCc2ccccc21` [Example 14, 3-(3H-isobenzofuran-1-ylidene)-1,3-dihydro-indol-2-one], for which the IC50 in data set [2] came to 110 nM.

In general, IC50 refers to the concentration at which inhibition is half-maximal. The term half-life denotes how long it takes for the measured level to halve. A high value points to slow decline.
